A short description of series [1]: Colistin concentration in plasma after CMS nebulization. The format is in vivo. To be noted: human, inhaled or intranasal, 20 patients. As to the method:
(§1) Patients were treated with CMS (Xellia Pharmaceuticals ApS, Copenhagen, Denmark) at a total of 3.75 MIU (equivalent to 300 mg of CMS or 112.5 mg of CBA) administered four times a day at 6 h intervals. CMS was dissolved in 5 mL of normal saline and administered over 30 min through a jet nebulizer (Sileo 54, Macjin Medical, Seoul, Republic of Korea) connected to the ventilator circuit. Bronchoalveolar lavage fluid (BALF) was obtained by instilling 20 mL of normal saline into the right middle lobe or left lingular segmental bronchus using a bronchoscope, followed by immediate aspiration and collection into a syringe. Samples were collected immediately before the nebulization treatment and at 1, 3, and 5 h after the start of the treatment. Blood samples were collected before the nebulization treatment and at 1, 2, 3, and 5 h thereafter. Both BALF and blood samples were centrifuged at 3000× g for 10 min within 1 h of collection and the supernatant was isolated. Samples were then stored in a refrigerator at a temperature below −70 °C.
A validated liquid chromatography–tandem mass spectrometry assay was used to determine colistin concentrations in BALF and plasma samples. The HPLC equipment consisted of an Agilent 1200 series modular system and an Atlantis C18 column (Company, Waters, Milford, MA, USA) (2.1 mm × 150 mm, 3.0 μm). Mobile phases A and B were water and acetonitrile, respectively. Both phases contained 0.1% formic acid. A gradient elution program was started at 10% B, increased to 35% for 1 min, maintained at this composition for 3.8 min, and returned to the initial composition for 5 min to re-equilibrate the column. Mass spectrometry (MS) was performed using a triple-quadruple mass spectrometer (SCIEX QTRAP5500, Applied Biosystems, Foster City, CA, USA) with an electrospray ionization (ESI) interface. The ESI source was set to positive ionization mode. The parent to product transition (m/z) was 578.483→101.071 for colistin A, 585.453→101.071 for colistin B, and 602.527→101.000 for polymyxin B. Data acquisition and processing were performed using the Analyst software (version 1.7.1; Applied Biosystems, Foster City, CA, USA). Stock solutions of colistin and IS were prepared in deionized water at concentrations of 10 mg/mL, and both were stored at −20 °C. Working solutions of colistin were prepared in deionized water (dilutions of 2, 5, 10, 50, 100, 500, and 1000 μg/mL). Calibration standards were prepared by spiking 247.5 μL of drug-free plasma with 2.5 μL of colistin working solution. Low (colistin A; 11.16 ng/mL, colistin B; 48.84 ng/mL), moderate (colistin A; 186 ng/mL, colistin B; 814 ng/mL), and high (colistin A; 1488 ng/mL, colistin B; 6512 ng/mL) concentrations of QC samples were prepared. Sample pretreatment involved a solid phase extraction. A 250 μL aliquot of plasma was pipetted into a 1.5 mL Eppendorf tube, to which 10 μL of IS (10 μg/mL, polymyxin B) and 740 μL of deionized water were added. This mixture was loaded into a cartridge that had been preconditioned twice with 1 mL of methanol and 1 mL of deionized water. After the plasma mixture was loaded, the cartridge was washed with 1 mL of deionized water. One milliliter of methanol including 0.1% formic acid was used for extraction. Extraction liquid was evaporated by vacuum concentrator (Speedvac, Thermo Fisher Scientific Inc., Waltham, MA, USA) at 45 °C for 2.5 h. Samples were reconstituted in 100 μL deionized water containing 0.1% formic acid. […]

The subject of series [2] is A. baumannii. As to conditions: among 2879 isolates, EUCAST; cited from earlier work.
For series [3] the following is noted: cited from earlier work. The protocol: We investigated whether the fAUC values of individual patients were associated with clinical or microbiological outcomes (Table 3). Using individual estimates of CL derived from the final PK model, we calculated the steady-state fAUC for each patient when a total of 3.75 MIU (=300 mg CMS = 112.5 mg CBA) was administered at 6 h intervals four times a day, using the formula AUC = DOSE/CL. The unbound fraction of colistin was assumed to be 10% [25] in the ELF based on the study by Gkoufa et al. and 34% in the plasma based on the study by Mohamed et al.. Gkoufa et al. presented concentrat ...

Series [4] concerns A. baumannii. To be noted: murine lung infection model; cited from earlier work.
In series [5] the test system is A. baumannii. As to conditions: murine thigh infection model; cited from earlier work.
Series [6] is described as follows: Colistin concentration in epithelial lining fluid (BALF, urea-corrected) after CMS nebulization. It counts as in vivo, human. As to the method: as §1
A validated liquid chromatography–tandem mass spectrometry assay was used to determine colistin concentrations in BALF and plasma samples. The HPLC equipment consisted of an Agilent 1200 series modular system and an Atlantis C18 column (Company, Waters, Milford, MA, USA) (2.1 mm × 150 mm, 3.0 μm). Mobile phases A and B were water and acetonitrile, respectively. Both phases contained 0.1% formic acid. A gradient elution program was started at 10% B, increased to 35% for 1 min, maintained at this composition for 3.8 min, and returned to the initial composition for 5 min to re-equilibrate the column. Mass spectrometry (MS) was performed using a triple-quadruple mass spectrometer (SCIEX QTRAP5500, Applied Biosystems, Foster City, CA, USA) with an electrospray ionization (ESI) interface. The ESI source was set to positive ionization mode. The parent to product transition (m/z) was 578.483→101.071 for colistin A, 585.453→101.071 for colistin B, and 602.527→101.000 for polymyxin B. Data acquisition and processing were performed using the Analyst software (version 1.7.1; Applied Biosystems, Foster City, CA, USA). Stock solutions of colistin and IS were prepared in deionized water at concentrations of 10 mg/mL, and both were stored at −20 °C. Working solutions of colistin were prepared in deionized water (dilutions of 2, 5, 10, 50, 100, 500, and 1000 μg/mL). Calibration standards were prepared by spiking 247.5 μL of drug-free plasma with 2.5 μL of colistin working solution. Low (colistin A; 11.16 ng/mL, colistin B; 48.84 ng/mL), moderate (colistin A; 186 ng/mL, colistin B; 814 ng/mL), and high (colistin A; 1488 ng/mL, colistin B; 6512 ng/mL) concentrations of QC samples were prepared. Sample pretreatment involved a solid phase extraction. A 250 μL aliquot of plasma was pipetted into a 1.5 mL Eppendorf tube, to which 10 μL of IS (10 μg/mL, polymyxin B) and 740 μL of deionized water were added. This mixture was loaded into a cartridge that had been preconditioned twice with 1 mL of methanol and 1 mL of deionized water. After the plasma mixture was loaded, the cartridge was washed with 1 mL of deionized water. One milliliter of methanol including 0.1% formic acid was used for extraction. Extraction liquid was evaporated by vacuum concentrator (Speedvac, Thermo Fisher Scientific Inc., Waltham, MA, USA) at 45 °C for 2.5 h. Samples were reconstituted in 100 μL deionized water containing 0.1% formic acid. Subsequently, samples were vortexed for 5 min and centrifuged at 13,200 rpm for 10 min, and […] of supernatant was injected into the LC-MS system.
Colistin concentrations, encompassing both colistin A and colistin B, were determined and collectively referred to as “colistin”. The concentration of colistin in the epithelial lining fluid (ELF), termed CELF, was calculated using the formula CELF = CBAL (Ureaplasma/UreaBAL), where CBAL is the colistin concentration measured in BALF. […]

Where two headings read alike, the source gives them in different places. Positions of bridges follow the written chain, without caps; N, C: chain ends. Non-standard residues stand in square brackets, D forms with d. Residues, ends and D or L forms follow the SMILES beside them. *: point of attachment. X1 = CC[C@H](C)CCCCC(=O)*; Dab = NCC[C@H](N)C(=O)O

The values that follow come from article PMC10967270, “Intrapulmonary and Systemic Pharmacokinetics of Colistin Following Nebulization of Low-Dose Colistimethate Sodium in Patients with Ventilator-Associated Pneumonia Caused by Carbapenem-Resistant Acinetobacter baumannii” (Antibiotics, 2024).

As for `CC[C@H](C)CCCCC(=O)N[C@@H](CCN)C(=O)N[C@H](C(=O)N[C@@H](CCN)C(=O)N[C@H]1CCNC(=O)[C@H]([C@@H](C)O)NC(=O)[C@H](CCN)NC(=O)[C@H](CCN)NC(=O)[C@H](CC(C)C)NC(=O)[C@@H](CC(C)C)NC(=O)[C@H](CCN)NC1=O)[C@@H](C)O` [colistin] (X1-[Dab]T[Dab][Dab][Dab][dL]L[Dab][Dab]T; lactam 4-C), the level at 1 h in series [1] (1 h after start (time by position in Figure 1c), CMS 0.9375 MIU nebulized over 30 min, LC-MS/MS, read-out: Median colistin concentration in plasma) is 19.2 ng/mL; in series [6] (human, epithelial lining fluid, inhaled or intranasal, 1 h after start (time by position in Figure 1a), CMS 0.9375 MIU nebulized over 30 min, LC-MS/MS, 20 patients, read-out: Median colistin concentration in ELF) it was 11800 ng/mL. The level at 2 h in series [1] (2 h after start (time by position in Figure 1c), CMS 0.9375 MIU nebulized over 30 min, LC-MS/MS, read-out: Median colistin concentration in plasma) was found to be 29.8 ng/mL. Moreover, the level at 3 h was found to be 37.7 ng/mL in series [1] (3 h after start (time by position in Figure 1c), CMS 0.9375 MIU nebulized over 30 min, LC-MS/MS, read-out: Median colistin concentration in plasma) and 15400 ng/mL in series [6] (human, epithelial lining fluid, inhaled or intranasal, 3 h after start (time by position in Figure 1a), CMS 0.9375 MIU nebulized over 30 min, LC-MS/MS, 20 patients, read-out: Median colistin concentration in ELF). For the same compound, the level at 5 h in series [1] (5 h after start (time by position in Figure 1c), CMS 0.9375 MIU nebulized over 30 min, LC-MS/MS, read-out: Median colistin concentration in plasma) amounted to 32.6 ng/mL; in series [6] (human, epithelial lining fluid, inhaled or intranasal, 5 h after start (time by position in Figure 1a), CMS 0.9375 MIU nebulized over 30 min, LC-MS/MS, 20 patients, read-out: Median colistin concentration in ELF), 8160 ng/mL. For the same compound, the Cmax in series [1] (nebulized CMS 0.9375 MIU over 30 min, monitored over 5 h, read-out: Observed peak colistin concentration in plasma, median (IQR)) is 43.5 ng/mL. Further, in the series with A. baumannii [2], the “Isolates with a colistin MIC of 1 mg/L, number (%)” value is 1451 (50.4%). The “Isolates with a colistin MIC of 2 mg/L, number (%)” value in the series on A. baumannii [2] is 539 (18.7%). For the same compound, the “Isolates with a colistin MIC of 4 mg/L, number (%)” value in the series on A. baumannii [2] is 54 (1.88%). In series [3] (assumed, rounded from 0.099 used in simulations by Gkoufa et al.), the “Unbound fraction of colistin in the ELF” value is on record as 10%. For the same compound, the “Unbound fraction of colistin in plasma, median” value in series [3] (equilibrium dialysis, Mohamed et al.) was 34%. The “fAUC/MIC target values for a 2 log10 kill” value in the series on A. baumannii [4] is recorded as 22.5–95.0 mg/L·h; in the series on A. baumannii [5], 17.5–43.0 mg/L·h. For the same compound, the Kp at 1 h in series [6] (human, epithelial lining fluid, inhaled or intranasal, at 1 h, median concentrations, nebulized CMS 0.9375 MIU, read-out: Colistin concentration in ELF relative to plasma) is roughly 614. Besides, the Kp at 3 h in series [6] (human, epithelial lining fluid, inhaled or intranasal, at 3 h, median concentrations, nebulized CMS 0.9375 MIU, read-out: Colistin concentration in ELF relative to plasma) was roughly 408. For the same compound, the Kp at 5 h in series [6] (human, epithelial lining fluid, inhaled or intranasal, at 5 h, median concentrations, nebulized CMS 0.9375 MIU, read-out: Colistin concentration in ELF relative to plasma) was roughly 250. Besides, the “Observed peak colistin concentration in ELF, median (IQR)” value in series [6] (nebulized CMS 0.9375 MIU over 30 min, monitored over 5 h, 20 patients) is recorded as 21,950 (10,440–28,389) μg/L.
